This passage reports IC50 results from patent publication EP4592296A1, “NOVEL TETRAHETEROCYCLE COMPOUND” (Idience Co., Ltd., priority 2022, dated 2024).

The IC50 is the midpoint of a concentration-inhibition curve. High values mean weaker potency, low ones greater potency.

For experiment [1], the system named is AsPC-1 pancreatic cancer (KRAS G12D mutation) cells. Description: Cell proliferation assay (CellTiter-Glo cell viability). Conditions: AsPC-1 cells, CellTiter-Glo 2.0. Type of experiment: cell-based. On the procedure:
(§1) Cell viability test of test compounds in AsPC-1 pancreatic cancer (KRAS G12D mutation) or SW480 colon cancer (KRAS G12V mutation) cells for 72 hours
(§2) The reference compound Staurosporine was purchased from Sigma-Aldrich (Saint Louis, […]), and CellTiter-Glo® 2.0 Luminescent cell viability assay reagent (cat# G9243) was purchased from Promega (Madison, WI). AsPC-1 and SW480 cell lines were purchased from the American Type Culture Collection (Manassas, VA). AsPC-1 cells were cultured in RPMI-1640 (ATCC, cat#30-2001), and SW480 cells were cultured in DMEM (ATCC cat#30-2002), supplemented with 10% FBS (Sigma-Aldrich, cat#F2442) and 100 µg/mL penicillin-streptomycin (Sigma-Aldrich, cat#P4333). Cells were cultured at 37 °C in a humidified atmosphere of 5 % CO2 and 95 % air.
(§3) • 1. The test compound and reference compound Staurosporine were dissolved in DMSO solution to prepare 20 mM (test compound) and 10 mM (reference compound Staurosporine) in the Source Plate, and diluted 3-fold and 10 doses with DMSO. • 2. Ten volumes of 125 nL test compound or 25 nL reference compound from the Source Plate were dispensed into wells of a 384-well culture plate (VWR, cat#82050-076) using an Echo 655. • 3. 25 µL of culture medium including 2000 AsPC-1 or SW480 cells was dispensed into each 384-well cell culture plate. • 4. Cells were cultured with compounds at 37 °C, 5 % CO2for 72 hours. • 5. 25 µL of CellTiter-Glo 2.0 reagent was added to each well of the plate. • 6. The contents were mixed in an orbital shaker for 2 minutes and the luminescence signal was stabilized at room temperature for 15 minutes. • 7. Luminescence signals were measured with an Envision 2104 Multilabel Reader (PerkinElmer, Santa Clara, CA), and the number of viable cells was determined by quantifying the ATP present in each culture medium. • 8. IC50 values were calculated based on the sigmoidal dose-response equation in the GraphPad Prism 4 program.

A further experiment deals with T1, KRAS^WT (Homo sapiens, UniProt P01116).
T1 construct: GST-tagged KRAS WT or mutant proteins (amino acids 2-169)
Put plainly: KRAS nucleotide exchange assay (SOS1-mediated, HTRF). Type of experiment: biochemical. Conditions: KRAS 20 nM, SOS1 7.5 nM, labeled GTP 0.15 µM. The source says: (§4) Evaluation of the inhibitory effect of compounds on SOS1-mediated nucleotide exchange activity of KRAS^WT, KRAS^G12D, and KRAS^G12V mutants
(§5) A method to monitor SOS1-mediated exchange of unlabeled KRAS-bound GDP and fluorescently labeled GTP, based on energy transfer between the donor Tb cryptate-labeled GST antibody and the acceptor DY-647P1 GTP when they are in close proximity.
(§6) • GST-tagged KRAS WT or mutant proteins (amino acids 2-169), • SOS1(amino acids 564-1049), • Labeled GTP (GTP-DY-647P1), • Assay Buffer (20 mM HEPES pH 7.4, 150 mM NaCl, 5 mM MgCl2, 1 mM DTT, 0.05% BSA, 0.0025% NP40)
(§7) • 1. KRAS protein was diluted with assay buffer to 1.5 times the final concentration, mixed with Tb cryptate anti-GST antibody, and 10 µL was added to each assay well (final concentration was 20 nM for KRAS^WT, KRAS^G12D, and KRAS^G12V). • 2. The compound was dissolved in DMSO and then diluted to prepare 100 times the final concentration. • 3. Compounds were dispensed into assay wells using an ECHO acoustic dispenser (Beckman), gently mixed with the KRAS/Ab mixture, and incubated for 60 minutes. • 4. SOS1 and labeled GTP were mixed and diluted to 3 times the final concentration with assay buffer, and 5 µL of the solution was added to the assay well to initiate the reaction (final concentration of labeled GTP was 0.15 µM, final concentration of SOS1 was 7.5 nM in WT, 12.5 nM in G12D, and 50 nM in G12V). Blank wells contained only assay buffer and labeled GTP. • 5. The reaction was monitored at Ex/Em=(337/665; 337/620) using a Pherastar Plate Reader (BMG). • 6. The HTRF signal was analyzed approximately 25 minutes after the start of the reaction (G12V reacted for 60 minutes). • 7. Nucleotide exchange activity was expressed as a percentage difference compared to the DMSO reaction value, and the IC50 value was calculated based on the four-parameter logistic equation in GraphPad 4.0 software. HTRF signal = ems 665/ems 620∗10000 [formula]

For another experiment, the target named is T2, KRAS^G12D (Homo sapiens, UniProt P01116, G12D).
T2 construct: GST-tagged KRAS WT or mutant proteins (amino acids 2-169)
Described as above. Conditions: KRAS 20 nM, SOS1 12.5 nM, labeled GTP 0.15 µM, 60 min preincubation. Format: biochemical.
Excerpt: as §4, §5, §6, §7

The next experiment has as its target T3, KRAS^G12V (Homo sapiens, UniProt P01116, G12V).
T3 construct: GST-tagged KRAS WT or mutant proteins (amino acids 2-169)
The experiment is described as above. Type of experiment: biochemical. Conditions: KRAS 20 nM, SOS1 50 nM, labeled GTP 0.15 µM, reacted 60 minutes.
Excerpt: as §4, §5, §6, §7

The subject of experiment [2] is SW480 colon cancer (KRAS G12V mutation) cells. Put plainly: Cell proliferation assay (CellTiter-Glo cell viability). Conditions: Homo sapiens, 72 hours, CellTiter-Glo 2.0. Format: cell-based. As for the experimental part:
as §1, §2, §3
(In general: ATP-based viability assays read luminescence as a measure of living cells.)

A further experiment addresses T4, KRAS G12C (Homo sapiens, UniProt P01116, G12C).
T4 construct: GST-tagged KRAS WT or mutant proteins (amino acids 2-169)
Description: KRAS nucleotide exchange assay (SOS1-mediated, HTRF). Conditions: conditions for G12C not described. Format: biochemical. Background: In TR-FRET formats the signal depends on donor and acceptor labels being close together.

The next experiment deals with T5, KRAS G13D (Homo sapiens, UniProt P01116, G13D).
T5 construct: GST-tagged KRAS WT or mutant proteins (amino acids 2-169)
The experiment is described as above. Format: biochemical. Conditions: conditions for G13D not described.

T2 sequence (P01116 2-169 isoform P01116-2 G12D): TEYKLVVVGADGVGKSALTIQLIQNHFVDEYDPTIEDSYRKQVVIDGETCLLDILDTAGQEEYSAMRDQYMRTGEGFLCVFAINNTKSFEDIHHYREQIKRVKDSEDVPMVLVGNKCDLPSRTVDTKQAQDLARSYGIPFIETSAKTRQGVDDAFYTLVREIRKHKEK
T3 sequence (P01116 2-169 isoform P01116-2 G12V): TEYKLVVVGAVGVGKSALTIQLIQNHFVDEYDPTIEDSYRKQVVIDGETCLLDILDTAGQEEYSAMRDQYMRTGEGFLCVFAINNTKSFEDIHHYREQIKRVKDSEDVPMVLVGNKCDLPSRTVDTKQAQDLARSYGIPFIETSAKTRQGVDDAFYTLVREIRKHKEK
T4 sequence (P01116 2-169 isoform P01116-2 G12C): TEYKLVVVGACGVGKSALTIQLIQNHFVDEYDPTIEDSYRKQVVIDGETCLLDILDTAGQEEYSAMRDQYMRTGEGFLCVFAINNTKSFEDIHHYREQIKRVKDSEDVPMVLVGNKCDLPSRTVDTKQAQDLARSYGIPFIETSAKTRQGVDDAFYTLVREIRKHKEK
T1 sequence (P01116 2-169 isoform P01116-2): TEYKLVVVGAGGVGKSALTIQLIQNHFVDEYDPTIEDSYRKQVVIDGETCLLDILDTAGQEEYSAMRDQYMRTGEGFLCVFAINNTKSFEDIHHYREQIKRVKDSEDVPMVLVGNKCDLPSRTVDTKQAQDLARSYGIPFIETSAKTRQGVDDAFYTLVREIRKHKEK
T5 sequence (P01116 2-169 isoform P01116-2 G13D): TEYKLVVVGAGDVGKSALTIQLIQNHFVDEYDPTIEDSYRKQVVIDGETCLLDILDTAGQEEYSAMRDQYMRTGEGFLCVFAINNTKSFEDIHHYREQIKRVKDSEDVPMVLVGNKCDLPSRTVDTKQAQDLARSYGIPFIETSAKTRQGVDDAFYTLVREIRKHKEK

With `N#Cc1c(N)sc2c(F)ccc(-c3c(Cl)c4c5c(nc(OC[C@@]67CCCN6C[C@H](F)C7)nc5c3F)N3CCCOC[C@H]3CO4)c12` (single isomer, unassigned) [Example 12a], the IC50 in experiment [1] (72 hours) fell in the range of 2000 to 20000 nM.
The compound `N#Cc1c(N)sc2c(F)ccc(-c3c(Cl)c4c5c(nc(OC[C@@]67CCCN6C[C@H](F)C7)nc5c3F)N3CCCOC[C@H]3CO4)c12` (single isomer, unassigned) [Example 12b] gave an IC50 in experiment [1] (Homo sapiens, ASPC1, 72 h) below 2000 nM.
In the case of `CCc1c(F)ccc2cc(O)cc(-c3nc4c5c(nc(OC[C@@]67CCCN6C[C@H](F)C7)nc5c3F)N3CCNC[C@@H]3CCO4)c12` [Example 1, 5-ethyl-6-fluoro-4-((S)-1-fluoro-12-(((2R,7aS)-2-fluorotetrahydro-1H-pyrrolizin-7a(5H)-yl)methoxy)-6,6a,7,8,9,10-hexahydro-5H-4-oxa-3,8,10a,11,13-pentaazabenzo[4,5]cycloocta[1,2,3-de]naphthalen-2-yl)naphthalen-2-ol], the IC50 on KRAS^WT is 6.5 nM; against KRAS^G12D, 5.95 nM; in experiment [1] (Homo sapiens, ASPC1, 72 h) it was above 20000 nM.
As for `C#Cc1c(F)ccc2cc(O)cc(-c3nc4c5c(nc(OC[C@@]67CCCN6C[C@H](F)C7)nc5c3F)N3CCNC[C@@H]3CCO4)c12` [Example 2, 5-ethynyl-6-fluoro-4-((S)-1-fluoro-12-(((2R,7aS)-2-fluorotetrahydro-1H-pyrrolizin-7a(5H)-yl)methoxy)-6,6a,7,8,9,10-hexahydro-5H-4-oxa-3,8,10a,11,13-pentaazabenzo[4,5]cycloocta[1,2,3-de]naphthalen-2-yl)naphthalen-2-ol], the IC50 was 2.89 nM against KRAS^G12V; 2.75 nM on KRAS^G12D; above 20000 nM in experiment [1] (Homo sapiens, ASPC1, 72 h); above 20000 nM in experiment [2].
Take `Nc1nc2c(-c3c(Cl)c4c5c(nc(OC[C@@]67CCCN6C[C@H](F)C7)nc5c3F)N3CCNC[C@@H]3CCO4)ccc(F)c2s1` [Example 3, 4-((14aS)-11-chloro-9-fluoro-7-(((2R,7aS)-2-fluorotetrahydro-1H-pyrrolizin-7a(5H)-yl)methoxy)-1,3,4,13,14,14a-hexahydro-2H-pyrazino[1',2':5,6][1,5]oxazocino[4,3,2-de]quinazolin-10-yl)-7-fluorobenzo[d]thiazol-2-amine]: the IC50 against KRAS^G12D is 7.84 nM; in experiment [1] (Homo sapiens, ASPC1, 72 h), 2000 to 20000 nM.
Compound `Oc1cc(Cl)c(C2CC2)c(-c2nc3c4c(nc(OCC56CCCN5CC(F)C6)nc4c2F)N2CCNCC2CCO3)c1` [Example 4, 3-chloro-4-cyclopropyl-5-((S)-1-fluoro-12-(((2R,7aS)-2-fluorotetrahydro-1H-pyrrolizin-7a(5H)-yl)methoxy)-6,6a,7,8,9,10-hexahydro-5H-4-oxa-3,8,10a,11,13-pentaazabenzo[4,5]cycloocta[1,2,3-de]naphthalen-2-yl)phenol] showed an IC50 on KRAS^G12D of 52.5 nM.
Same read-out and setting: with `CCc1c(F)ccc2cc(O)cc(-c3nc4c5c(nc(OC[C@@]67CCCN6C[C@H](F)C7)nc5c3F)N3CCNC[C@@H]3CC(C)O4)c12` (stereo partly drawn) [Example 5, 5-ethyl-6-fluoro-4-((6aS)-1-fluoro-12-(((2R,7aS)-2-fluorotetrahydro-1H-pyrrolizin-7a(5H)-yl)methoxy)-5-methyl-6,6a,7,8,9,10-hexahydro-5H-4-oxa-3,8,10a,11,13-pentaazabenzo[4,5]cycloocta[1,2,3-de]naphthalen-2-yl)naphthalen-2-ol] the figure was 12.5 nM.
Take `Nc1nc2c(-c3c(Cl)c4c5c(nc(OC[C@@]67CCCN6C[C@H](F)C7)nc5c3F)N3CCCCCC3CO4)ccc(F)c2s1` (stereo partly drawn) [Example 6, 4-(3-chloro-1-fluoro-13-(((2R,7aS)-2-fluorotetrahydro-1H-pyrrolizin-7a(5H)-yl)methoxy)-5a,6,7,8,9,10-hexahydro-5H-azepino[2',1':3,4][1,4]oxazepino[5,6,7-de]quinazolin-2-yl)-7-fluorobenzo[d]thiazol-2-amine]: the IC50 at KRAS^G12V is 5.9 nM; at KRAS^G12D, 5.9 nM; against KRAS G12C it was 2.36 nM; at KRAS G13D it was 11.1 nM; in experiment [1] (Homo sapiens, ASPC1, 72 h), below 2000 nM.
For the compound `Nc1nc2c(-c3c(Cl)c4c5c(nc(OC[C@@]67CCCN6C[C@H](F)C7)nc5c3F)N3CCCOC[C@H]3CO4)ccc(F)c2s1` [Example 7, 4-((14aS)-12-chloro-10-fluoro-8-(((2R,7aS)-2-fluorotetrahydro-1H-pyrrolizin-7a(5H)-yl)methoxy)-4,5,14,14a-tetrahydro-1H,3H-[1,4]oxazepino[3',4':3,4][1,4]oxazepino[5,6,7-de]quinazolin-11-yl)-7-fluorobenzo[d]thiazol-2-amine], the IC50 in experiment [1] (Homo sapiens, ASPC1, 72 h) is below 2000 nM.
The same measure, in the same setting: then `N#Cc1c(N)sc2c(F)ccc(-c3c(Cl)c4c5c(nc(OC[C@@]67CCCN6C[C@H](F)C7)nc5c3F)N3CCCCC[C@@H]3CO4)c12` [Example 11a, 2-amino-4-(3-chloro-1-fluoro-13-(((2R,7aS)-2-fluorotetrahydro-1H-pyrrolizin-7a(5H)-yl)methoxy)-5a,6,7,8,9,10-hexahydro-5H-azepino[2',1':3,4][1,4]oxazepino[5,6,7-de]quinazolin-2-yl)-7-fluorobenzo[b]thiophene-3-carbonitrile], with 2000 to 20000 nM; and `N#Cc1c(N)sc2c(F)ccc(-c3c(Cl)c4c5c(nc(OC[C@@]67CCCN6C[C@H](F)C7)nc5c3F)N3CCCCC[C@H]3CO4)c12` [Example 11b, 2-amino-4-(3-chloro-1-fluoro-13-(((2R,7aS)-2-fluorotetrahydro-1H-pyrrolizin-7a(5H)-yl)methoxy)-5a,6,7,8,9,10-hexahydro-5H-azepino[2',1':3,4][1,4]oxazepino[5,6,7-de]quinazolin-2-yl)-7-fluorobenzo[b]thiophene-3-carbonitrile], with below 2000 nM.
